# From patent US10485844B2, “Methods for treating severe atopic dermatitis by administering an IL-4R inhibitor” (Regeneron Pharmaceuticals, Inc., priority 2016, dated 2019)
# Entries after “also recorded” stand apart in the source; their conditions may differ.
# Columns and labels:
# [1] = tested on: adults with moderate-to-severe atopic dermatitis; test: Phase 3 open-label trial: dupilumab-naïve vs retreated patients (treatment interruption); settings: for adverse events/100 patient years: to Wk52; for decrease in peak pruritus NRS score from baseline of parent study / patients who achieved EASI-75 (from baseline of parent study) / patients with Investigator's Global Assessment score of 0 or 1: Wk52
# Description: This Example presents an interim analysis of an ongoing multicenter, open-label trial (NCT01949311) of dupilumab treatment for up to 3 yrs. Adults with moderate-to-severe atopic dermatitis (AD) were enrolled after participation in prior dupilumab trials. Safety and efficacy at Week [Wk] 52 for dupilumab naïve (previously unexposed) and retreated (>13 Wk gap between parent and open-label study) patients were evaluated.
# [2] = tested on: adults with moderate-to-severe AD; test: 1-year placebo-controlled trial of dupilumab + TCS: subgroup analysis by CsA eligibility / CsA history; format: in vivo, human; settings: for proportion of patients achieving a 75% improvement in EASI / proportion of patients achieving a ≥4-point improvement in peak pruritus numerical rating scale / Patients achieving EASI-75, n (%) / Patients achieving a peak pruritus NRS score improvement ≥4 points from baseline, n/N1 (%): Week 52; for Patients achieving a peak pruritus NRS score improvement ≥4 points from baseline, n/N1 (%): baseline NRS ≥4
# Description: Patients were randomized 3:1:3 (dupilumab 300 mg weekly [qw], every two weeks [q2w], or placebo). Patients received concomitant low and/or medium potency TCS, which could be tapered and discontinued based on clinical response. Topical calcineurin inhibitors could be used in areas considered inadvisable for TCS.
# In further analysis, the efficacy and safety of dupilumab vs placebo (PBO) at 52 weeks was compared in two patient (pt) subsets of the population: pts who were earlier treated with CsA but responded inadequately or were intolerant to CsA (subset A; n=114) and the remaining study population (subset B; n=509). Subset A pts had, on average, more severe disease than subset B pts, as assessed by Eczema Area and Severity Index (EASI) (mean baseline±SD EASI score 37.0±12.70 vs 31.6±12.77; nominal p<0.0001 [post-hoc analysis]).
# [3] = tested on: patients with moderate-to-severe AD; test: Pooled subgroup analysis of two 16-week phase 3 dupilumab monotherapy trials by CsA eligibility / CsA history; format: in vivo, human; settings: for Patients achieving EASI 75, n (%) / Patients achieving IGA 0-1, n (%) / bacterial conjunctivitis rate / conjunctivitis rate: 16 weeks; for Patients achieving a ≥4-point improvement in peak pruritus NRS, n/N1 (%): baseline NRS ≥4
# Description: Pts (N=1379) with moderate-to-severe AD whose disease was not adequately controlled by topical medications or for whom topical treatment is medically inadvisable were randomized to receive subcutaneous injections of placebo (PBO) or dupilumab 300 mg every 2 weeks (q2w) or weekly (qw) for 16 weeks.
# Subset A pts had, on average, more severe disease than subset B pts, as assessed by Eczema Area and Severity Index (EASI; mean baseline±SD EASI score 37.2±14.69 vs 32.0±13.29; nominal p<0.0001).
# [4] = Functional dupilumab concentrations in serum, 52-week trial with TCS; format: in vivo, human; settings: Week 16
# Description: The clinical trial was a 52-week randomized, multicenter, double-blind, placebo-controlled trial of subcutaneous dupilumab with concomitant topical corticosteroids (TCS) in 740 adult patients (NCT02260986) randomized 3:1:3 to placebo, dupilumab 300 mg every 2 weeks (q2w) and dupilumab 300 mg every week (qw); patients randomized to dupilumab received a loading dose of 600 mg. An open-label extension study of dupilumab 300 mg qw (NCT01949311) is ongoing in patients who participated in prior studies and results from 1076 patients treated for up to 68 weeks are also reported. This Example describes functional dupilumab concentrations measured in serum from blood samples at various time-points and analyzed using descriptive statistics.
# [5] = Functional dupilumab concentrations in serum, two 16-week phase 3 monotherapy studies; format: in vivo, human; settings: for mean functional concentration of dupilumab in serum: monotherapy
# Description: The studies were multicenter, randomized, double-blind, placebo-controlled studies of subcutaneously administered dupilumab in 1379 adult patients; each had duration of 16 weeks (NCT02277743 and NCT02277769). Patients were randomized 1:1:1 to placebo, dupilumab 300 mg every week (qw), and dupilumab 300 mg every 2 weeks (q2w); patients randomized to dupilumab received a loading dose of 600 mg. Presented here are functional dupilumab concentrations measured in serum from blood samples at various pharmacokinetic time-points and analyzed using descriptive statistics.
# CYP3A = test: Effect of dupilumab on PK of CYP substrate cocktail: midazolam; settings: 600 mg loading dose, then 300 mg weekly
# Description: Subcutaneous dupilumab was administered as a 600 mg loading dose on Day 8, followed by a weekly dose of 300 mg from Day 15 to Day 50. PK parameters included Geometric Mean Ratios (GMR) of AUClast (area under the plasma concentration-time curve from time zero to the time of the last quantifiable concentration) and Cmax (maximum observed plasma concentration) measured at Day 1 and Day 36, while efficacy assessments included changes in Eczema Area and Severity Index (EASI) scores (scale 0-72).
# [6] = CSA-eligible subset, Dupilumab 300 mg Q2W
# [7] = CSA-eligible subset, Dupilumab 300 mg QW
# [8] = CSA-ineligible subset, Dupilumab 300 mg Q2W
# [9] = CSA-ineligible subset, Dupilumab 300 mg QW
substance,measurement,setting,value
"dupilumab: fully human anti-IL-4R antibody; heavy chain SEQ ID NO: 9, light chain SEQ ID NO: 10",serious AEs/100PY,[1]; dupilumab-naïve patients,11.7 serious AEs/100PY
same,treatment discontinuations due to AEs,[1]; dupilumab-naïve patients,2.6%
same,adverse events/100 patient years,[1]; dupilumab-naïve patients (n=116),432.5 AEs/100PY
same,deaths,[1]; naïve and retreated patients,no deaths
same,decrease in peak pruritus NRS score from baseline of parent study,[1]; naïve patients,64.9%
same,patients who achieved EASI-75 (from baseline of parent study),[1]; naïve patients,73.3%
same,patients with Investigator's Global Assessment score of 0 or 1,[1]; naïve patients,49.1%
same,serious AEs/100PY,[1]; retreated patients,5.4 serious AEs/100PY
same,treatment discontinuations due to AEs,[1]; retreated patients,2.8%
same,adverse events/100 patient years,[1]; retreated patients (>13 Wk gap; n=290),371.0 AEs/100PY
same,decrease in peak pruritus NRS score from baseline of parent study,[1]; retreated patients,60.6%
same,patients who achieved EASI-75 (from baseline of parent study),[1]; retreated patients,80.7%
same,patients with Investigator's Global Assessment score of 0 or 1,[1]; retreated patients,50.7%
same,treatment-emergent adverse event (TEAE) rate,"[2]; CSA-eligible, dupilumab q2w",87.2%
same,treatment-emergent adverse event (TEAE) rate,"[2]; CSA-eligible, dupilumab qw",81.7%
same,treatment-emergent adverse event (TEAE) rate,"[2]; CSA-ineligible, dupilumab q2w",91.7%
same,treatment-emergent adverse event (TEAE) rate,"[2]; CSA-ineligible, dupilumab qw",88.5%
same,proportion of patients achieving a 75% improvement in EASI,"[2]; CsA-eligible, dupilumab 300 mg q2w + TCS",69.1%
same,proportion of patients achieving a 75% improvement in EASI,"[2]; CsA-eligible, dupilumab 300 mg qw + TCS",67.0%
same,proportion of patients achieving a ≥4-point improvement in peak pruritus numerical rating scale,"[2]; CsA-eligible, dupilumab q2w",53.8%
same,proportion of patients achieving a ≥4-point improvement in peak pruritus numerical rating scale,"[2]; CsA-eligible, dupilumab qw",39.7%
same,proportion of patients achieving a 75% improvement in EASI,"[2]; CsA-ineligible, dupilumab 300 mg q2w + TCS",52.4%
same,proportion of patients achieving a 75% improvement in EASI,"[2]; CsA-ineligible, dupilumab 300 mg qw + TCS",50.0%
same,proportion of patients achieving a ≥4-point improvement in peak pruritus numerical rating scale,"[2]; CsA-ineligible, dupilumab q2w",42.9%
same,proportion of patients achieving a ≥4-point improvement in peak pruritus numerical rating scale,"[2]; CsA-ineligible, dupilumab qw",35.6%
same,"Patients achieving EASI-75, n (%)","[2]; Subset A (inadequate response or intolerance to CsA), Dupilumab 300 mg Q2W ± TCS (N = 19)",(52.6) %
same,"Patients achieving a peak pruritus NRS score improvement ≥4 points from baseline, n/N1 (%)","[2]; Subset A, Dupilumab 300 mg Q2W ± TCS",(47.4) %
same,"Patients achieving EASI-75, n (%)","[2]; Subset A, Dupilumab 300 mg QW ± TCS (N = 43)",(48.8) %
same,"Patients achieving a peak pruritus NRS score improvement ≥4 points from baseline, n/N1 (%)","[2]; Subset A, Dupilumab 300 mg QW ± TCS",(38.1) %
same,"Patients achieving EASI-75, n (%)","[2]; Subset B (remaining study population), Dupilumab 300 mg Q2W ± TCS (N = 70)",(68.6) %
same,"Patients achieving a peak pruritus NRS score improvement ≥4 points from baseline, n/N1 (%)","[2]; Subset B, Dupilumab 300 mg Q2W ± TCS",(52.2) %
same,"Patients achieving EASI-75, n (%)","[2]; Subset B, Dupilumab 300 mg QW ± TCS (N = 227)",(67.0) %
same,"Patients achieving a peak pruritus NRS score improvement ≥4 points from baseline, n/N1 (%)","[2]; Subset B, Dupilumab 300 mg QW ± TCS",(39.1) %
same,"Patients achieving EASI 75, n (%)","[3]; CSA-eligible subset, Dupilumab 300 mg Q2W (N = 353)",(49.9) %
same,"Patients achieving IGA 0-1, n (%)",[3]; [6],(38.8) %
same,"Patients achieving a ≥4-point improvement in peak pruritus NRS, n/N1 (%)",[3]; [6],(39.7) %
same,"Patients achieving EASI 75, n (%)","[3]; CSA-eligible subset, Dupilumab 300 mg QW (N = 366)",(54.1) %
same,"Patients achieving IGA 0-1, n (%)",[3]; [7],(39.1) %
same,"Patients achieving a ≥4-point improvement in peak pruritus NRS, n/N1 (%)",[3]; [7],(40.5) %
same,"Patients achieving EASI 75, n (%)","[3]; CSA-ineligible subset, Dupilumab 300 mg Q2W (N = 104)",(40.4) %
same,"Patients achieving IGA 0-1, n (%)",[3]; [8],(30.8) %
same,"Patients achieving a ≥4-point improvement in peak pruritus NRS, n/N1 (%)",[3]; [8],(33.7) %
same,"Patients achieving EASI 75, n (%)","[3]; CSA-ineligible subset, Dupilumab 300 mg QW (N = 96)",(35.4) %
same,"Patients achieving IGA 0-1, n (%)",[3]; [9],(28.1) %
same,"Patients achieving a ≥4-point improvement in peak pruritus NRS, n/N1 (%)",[3]; [9],(36.3) %
same,bacterial conjunctivitis rate,"[3]; CsA-eligible, dupilumab q2w",0.6%
same,conjunctivitis rate,"[3]; CsA-eligible, dupilumab q2w",5%
same,bacterial conjunctivitis rate,"[3]; CsA-eligible, dupilumab qw",1.1%
same,conjunctivitis rate,"[3]; CsA-eligible, dupilumab qw",3.3%
same,bacterial conjunctivitis rate,"[3]; CsA-ineligible, dupilumab q2w",3.8%
same,conjunctivitis rate,"[3]; CsA-ineligible, dupilumab q2w",1.9%
same,bacterial conjunctivitis rate,"[3]; CsA-ineligible, dupilumab qw",4.2%
same,conjunctivitis rate,"[3]; CsA-ineligible, dupilumab qw",4.2%
same,"Patients achieving EASI 75, n (%)","[3]; Subset A (inadequate response or intolerance to CsA), Dupilumab 300 mg Q2W (N = 94)",(38.3) %
same,"Patients achieving IGA 0-1, n (%)","[3]; Subset A, Dupilumab 300 mg Q2W",(29.8) %
same,"Patients achieving a ≥4-point improvement in peak pruritus NRS, n/N1 (%)","[3]; Subset A, Dupilumab 300 mg Q2W",(33.7) %
same,"Patients achieving EASI 75, n (%)","[3]; Subset A, Dupilumab 300 mg QW (N = 83)",(34.9) %
same,"Patients achieving IGA 0-1, n (%)","[3]; Subset A, Dupilumab 300 mg QW",(27.7) %
same,"Patients achieving a ≥4-point improvement in peak pruritus NRS, n/N1 (%)","[3]; Subset A, Dupilumab 300 mg QW",(34.1) %
same,"Patients achieving EASI 75, n (%)","[3]; Subset B (remaining study population), Dupilumab 300 mg Q2W (N = 363)",(50.1) %
same,"Patients achieving IGA 0-1, n (%)","[3]; Subset B, Dupilumab 300 mg Q2W",(38.8) %
same,"Patients achieving a ≥4-point improvement in peak pruritus NRS, n/N1 (%)","[3]; Subset B, Dupilumab 300 mg Q2W",(39.5) %
same,"Patients achieving EASI 75, n (%)","[3]; Subset B, Dupilumab 300 mg QW (N = 379)",(53.6) %
same,"Patients achieving IGA 0-1, n (%)","[3]; Subset B, Dupilumab 300 mg QW",(38.8) %
same,"Patients achieving a ≥4-point improvement in peak pruritus NRS, n/N1 (%)","[3]; Subset B, Dupilumab 300 mg QW",(40.9) %
same,mean functional concentration of dupilumab in serum,[4]; 300 mg q2w (600 mg loading dose) with TCS,80 mg/L
same,mean functional concentration of dupilumab in serum,[4]; 300 mg qw (600 mg loading dose) with TCS,185 mg/L
same,ratio (qw:q2w) of mean functional concentrations,[5]; Week 16,2.4
same,mean functional concentration of dupilumab in serum,"[5]; dupilumab 300 q2w (600 mg loading dose), Week 16",~75 mg/L
same,mean functional concentration of dupilumab in serum,"[5]; dupilumab 300 qw (600 mg loading dose), Week 16",180 mg/L
same,share of the Week 12 Ctrough reached by Week 4,"[5]; q2w dose, 600 mg loading dose",~80%
same,share of the Week 12 Ctrough reached by Week 4,[5]; qw dose,~67%
same,effect of dupilumab on the PK of midazolam / activity of CYP3A,CYP3A,no meaningful effect; also recorded: does not have a meaningful effect
